Experimental data taken from patent US8461107B2 (Merck Sharp & Dohme Corp., priority 2008, dated 2013).

target: T1, HCV genotype 1b (BK) NS3 modified with a R155K mutation (Hepatitis C virus genotype 1b, UniProt P26663, R1181K); assay: HCV NS3 protease time-resolved fluorescence (TRF) assay, NS3 protease 1b R155K Ki activity; type: biochemical; settings: HCV genotype 1b (BK) NS3 with R155K mutation; TRF peptide substrate 100 nM; Ki derived from IC50
T1 construct: HCV genotype 1b (BK) NS3 modified with a R155K mutation
Description: The HCV NS3 protease inhibitory activity of the present compounds may be tested using assays known in the art. One such assay is HCV NS3 protease time-resolved fluorescence (TRF) assay as described below and in International Patent Application Publication WO 2006/102087. Other examples of such assays are described in e.g., International Patent Application Publication WO 2005/046712.
A NS3 protease assay can be performed, for example, in a final volume of 100 μl assay buffer containing 50 mM HEPES, pH 7.5, 150 mM NaCl, 15% glycerol, 0.15% TRITON X-100, 10 mM DTT, and 0.1% PEG 8000. NS3 and NS4A protease is pre-incubated with various concentrations of inhibitors in DMSO for 30 minutes. The reaction is initiated by adding the TRF peptide substrate (final concentration 100 nM). NS3 mediated hydrolysis of the substrate is quenched after 1 hour at room temperature with 100 μl of 500 mM MES, pH 5.5. Product fluorescence is detected using either a VICTOR V2 or FUSION fluorophotometer (Perkin Elmer Life and Analytical Sciences) with excitation at 340 nm and emission at 615 nm with a 400 μs delay. Testing concentrations of different enzyme forms are selected to result in a signal to background ratio (S/B) of 10-30. IC50 values are derived using a standard four-parameter fit to the data. Ki values are derived from IC50 values using the following formula, IC50=Ki(1+[S]/KM), Eqn (1), where [S] is the concentration of substrate peptide in the reaction and KM is the Michaelis constant. See P. Gallinari et al., 38 BIOCHEM. 5620-32 (1999); P. Gallinari et al., 72 J. VIROL. 6758-69 (1998); M. Taliani et al., 240 ANAL. BIOCHEM. 60-67 (1996).
The HCV NS3 protease inhibitory activity was measured using the protease time-resolved fluorescence (TRF) assay as described below and in International Patent Application Publication WO 2006/102087. The assay was performed with HCV genotype 1b (BK) NS3 modified with a R155K mutation.
The assay was performed in a final volume of 100 μl in assay buffer containing 50 mM HEPES, pH 7.5, 150 mM NaCl, 15% glycerol, 0.15% TRITON X-100, 10 mM DTT, and 0.1% PEG 8000. NS3 and NS4A protease is pre-incubated with various concentrations of inhibitors in DMSO for 30 minutes. The reaction is initiated by adding the TRF peptide substrate (final concentration 100 nM). NS3 mediated hydrolysis of the substrate is quenched after 1 hour at room temperature with 100 μl of 500 mM MES, pH 5.5. Product fluorescence is detected using either a VICTOR V2 or FUSION fluorophotometer (Perkin Elmer Life and Analytical Sciences) with excitation at 340 nm and emission at 615 nm with a 400 μs delay. Testing concentrations of the enzyme containing the R155K mutation were selected to result in a signal to background ratio (S/B) of 10-30. IC50 values are derived using a standard four-parameter fit to the data. Ki values are derived from IC50 values using the following formula, IC50=Ki(1+[S]/KM), Eqn (1), where [S] is the concentration of substrate peptide in the reaction and KM is the Michaelis constant. See P. Gallinari et al., 38 BIOCHEM. 5620-32 (1999); P. Gallinari et al., 72 J. VIROL. 6758-69 (1998); M. Taliani et al., 240 ANAL. BIOCHEM. 60-67 (1996).

`CC[C@@H]1C[C@]1(NC(=O)[C@@H]1C[C@@H]2CN1C(=O)[C@H](C1CCCC1)NC(=O)O[C@@H]1CCC[C@H]1CC/C=C/Cn1c(nc3cc(C(F)(F)F)ccc3c1=O)O2)C(=O)NS(=O)(=O)C1CC1` [(3aR,7S,10S,12R,22E,25aS)-7-cyclopentyl-N-((1R,2R)-1-{[(cyclopropylsulfonyl)amino]carbonyl}-2-ethylcyclopropyl)-5,8,19-trioxo-16-(trifluoromethyl)-1,2,3,3a,5,6,7,8,11,12,21,24,25,25a-tetradecahydro-10H,19H-9,12-methanocyclopenta[18,19][1,10,3,6,12]dioxatriazacyclononadecino[11,12-b]quinazoline-10-carboxamide] and `C=C[C@@H]1C[C@]1(NC(=O)[C@@H]1C[C@@H]2CN1C(=O)[C@H](C1CCCC1)NC(=O)O[C@@H]1CCC[C@H]1CC/C=C/Cn1c(nc3cc(C(F)(F)F)ccc3c1=O)O2)C(=O)NS(=O)(=O)C1CC1` [(3aR,7S,10S,12R,22E,25aS)-7-cyclopentyl-N-((1R,2S)-1-{[(cyclopropylsulfonyl)amino]carbonyl}-2-vinylcyclopropyl)-5,8,19-trioxo-16-(trifluoromethyl)-1,2,3,3a,5,6,7,8,11,12,21,24,25,25a-tetradecahydro-10H,19H-9,12-methanocyclopenta[18,19][1,10,3,6,12]dioxatriazacyclononadecino[11,12-b]quinazoline-10-carboxamide] cannot be ordered by Ki: < 100 pM for the first, < 100 pM for the second.

First: CC[C@@H]1C[C@]1(NC(=O)[C@@H]1C[C@@H]2CN1C(=O)[C@H](C1CCCC1)NC(=O)O[C@@H]1CCC[C@H]1CC/C=C/Cn1c(nc3cc(-c4ccccc4)ccc3c1=O)O2)C(=O)NS(=O)(=O)C1CC1 [(3aR,7S,10S,12R,22E,25aS)-7-cyclopentyl-N-((1R,2R)-1-{[(cyclopropylsulfonyl)amino]carbonyl}-2-ethylcyclopropyl)-5,8,19-trioxo-16-phenyl-1,2,3,3a,5,6,7,8,11,12,21,24,25,25a-tetradecahydro-10H,19H-9,12-methanocyclopenta[18,19][1,10,3,6,12]dioxatriazacyclononadecino[11,12-b]quinazoline-10-carboxamide]
Second: C=C[C@@H]1C[C@]1(NC(=O)[C@@H]1C[C@@H]2CN1C(=O)[C@H](C1CCCC1)NC(=O)O[C@@H]1CCC[C@H]1CC/C=C/Cn1c(nc3cc(-c4ccccc4)ccc3c1=O)O2)C(=O)NS(=O)(=O)C1CC1 [(3aR,7S,10S,12R,22E,25aS)-7-cyclopentyl-N-((1R,2S)-1-{[(cyclopropylsulfonyl)amino]carbonyl}-2-vinylcyclopropyl)-5,8,19-trioxo-16-phenyl-1,2,3,3a,5,6,7,8,11,12,21,24,25,25a-tetradecahydro-10H,19H-9,12-methanocyclopenta[18,19][1,10,3,6,12]dioxatriazacyclononadecino[11,12-b]quinazoline-10-carboxamide]
The Ki of the first is higher: 100 to 500 pM for the first, < 100 pM for the second.

First: CC[C@@H]1C[C@]1(NC(=O)[C@@H]1C[C@@H]2CN1C(=O)[C@H](C1CCCC1)NC(=O)O[C@@H]1CCC[C@H]1CC/C=C/Cc1c(nc3ccccn3c1=O)O2)C(=O)NS(=O)(=O)C1CC1 [(3aR,7S,10S,12R,22E,25aS)-7-cyclopentyl-N-((1R,2R)-1-{[(cyclopropylsulfonyl)amino]carbonyl}-2-ethylcyclopropyl)-5,8,20-trioxo-1,2,3,3a,5,6,7,8,11,12,21,24,25,25a-tetradecahydro-10H,20H-9,12-methanocyclopenta[r]pyrido[1′,2′:1,2]pyrimido[4,5-k][1,10,3,6]dioxadiazacyclononadecine-10-carboxamide]
Second: C=C[C@@H]1C[C@]1(NC(=O)[C@@H]1C[C@@H]2CN1C(=O)[C@H](C1CCCC1)NC(=O)O[C@@H]1CCC[C@H]1CC/C=C/Cc1c(nc3ccccn3c1=O)O2)C(=O)NS(=O)(=O)C1CC1 [(3aR,7S,10S,12R,22E,25aS)-7-cyclopentyl-N-((1R,2S)-1-{[(cyclopropylsulfonyl)amino]carbonyl}-2-vinylcyclopropyl)-5,8,20-trioxo-1,2,3,3a,5,6,7,8,11,12,21,24,25,25a-tetradecahydro-10H,20H-9,12-methanocyclopenta[r]pyrido[1′,2′:1,2]pyrimido[4,5-k][1,10,3,6]dioxadiazacyclononadecine-10-carboxamide]
The Ki of the first is higher: 100 to 500 pM for the first, < 100 pM for the second.

`CC[C@@H]1C[C@]1(NC(=O)[C@@H]1C[C@@H]2CN1C(=O)[C@H](C1CCCC1)NC(=O)O[C@@H]1CCC[C@H]1CC/C=C/Cn1c(nc3c(OC)cccc3c1=O)O2)C(=O)NS(=O)(=O)C1CC1` [(3aR,7S,10S,12R,22E,25aS)-7-cyclopentyl-N-((1R,2R)-1-{[(cyclopropylsulfonyl)amino]carbonyl}-2-ethylcyclopropyl)-15-methoxy-5,8,19-trioxo-1,2,3,3a,5,6,7,8,11,12,21,24,25,25a-tetradecahydro-10H,19H-9,12-methanocyclopenta[18,19][1,10,3,6,12]dioxatriazacyclononadecino[11,12-b]quinazoline-10-carboxamide] and `CC[C@@H]1C[C@]1(NC(=O)[C@@H]1C[C@@H]2CN1C(=O)[C@H](C1CCCC1)NC(=O)O[C@@H]1CCC[C@H]1CC/C=C/Cn1c(nc3cccc(OC)c3c1=O)O2)C(=O)NS(=O)(=O)C1CC1` [(3aR,7S,10S,12R,22E,25aS)-7-cyclopentyl-N-((1R,2R)-1-{[(cyclopropylsulfonyl)amino]carbonyl}-2-ethylcyclopropyl)-18-methoxy-5,8,19-trioxo-1,2,3,3a,5,6,7,8,11,12,21,24,25,25a-tetradecahydro-10H,19H-9,12-methanocyclopenta[18,19][1,10,3,6,12]dioxatriazacyclononadecino[11,12-b]quinazoline-10-carboxamide] fall in the same range of Ki: 100 to 500 pM for the first, 100 to 500 pM for the second.

`CC[C@@H]1C[C@]1(NC(=O)[C@@H]1C[C@@H]2CN1C(=O)[C@H](C1CCCC1)NC(=O)O[C@@H]1CCC[C@H]1CC/C=C/Cn1c(nc3cc(S(C)(=O)=O)ccc3c1=O)O2)C(=O)NS(=O)(=O)C1CC1` [(3aR,7S,10S,12R,22E,25aS)-7-cyclopentyl-N-((1R,2R)-1-{[(cyclopropylsulfonyl)amino]carbonyl}-2-ethylcyclopropyl)-16-(methylsulfonyl)-5,8,19-trioxo-1,2,3,3a,5,6,7,8,11,12,21,24,25,25a-tetradecahydro-10H,19H-9,12-methanocyclopenta[18,19][1,10,3,6,12]dioxatriazacyclononadecino[11,12-b]quinazoline-10-carboxamide] and `C=C[C@@H]1C[C@]1(NC(=O)[C@@H]1C[C@@H]2CN1C(=O)[C@H](C1CCCC1)NC(=O)O[C@@H]1CCC[C@H]1CC/C=C/Cn1c(nc3ccccc3c1=O)O2)C(=O)NS(=O)(=O)C1CC1` [(3aR,7S,10S,12R,22E,25aS)-7-cyclopentyl-N-((1R,2S)-1-{[(cyclopropylsulfonyl)amino]carbonyl}-2-vinylcyclopropyl)-5,8,19-trioxo-1,2,3,3a,5,6,7,8,11,12,21,24,25,25a-tetradecahydro-10H,19H-9,12-methanocyclopenta[18,19][1,10,3,6,12]dioxatriazacyclononadecino[11,12-b]quinazoline-10-carboxamide] cannot be ordered by Ki: < 100 pM for the first, < 100 pM for the second.

With `CC[C@@H]1C[C@]1(NC(=O)[C@@H]1C[C@@H]2CN1C(=O)[C@H](C1CCCC1)NC(=O)O[C@@H]1CCC[C@H]1CC/C=C/Cc1c(nc3cc(OC)ccn3c1=O)O2)C(=O)NS(=O)(=O)C1CC1` [(3aR,7S,10S,12R,22E,25aS)-7-cyclopentyl-N-((1R,2R)-1-{[(cyclopropylsulfonyl)amino]carbonyl}-2-ethylcyclopropyl)-16-methoxy-5,8,20-trioxo-1,2,3,3a,5,6,7,8,11,12,21,24,25,25a-tetradecahydro-10H,20H-9,12-methanocyclopenta[r]pyrido[1′,2′:1,2]pyrimido[4,5-k][1,10,3,6]dioxadiazacyclononadecine-10-carboxamide] the Ki was 100 to 500 pM.
